Among the test systems are HOP-62 NSCLC; MOLT-4 leukemia; UACC-257 melanoma; HOP-92 NSCLC; SR leukemia; SK-MEL-2 melanoma; OVCAR-8 ovarian; SK-OV-3 ovarian; NCI/ADR-RES ovarian; SK-MEL-5 melanoma; SN12C renal; UACC-62 melanoma.
Common to all, as to experiment: NCI tumour cell line growth inhibition, 48 h

Our source for the TGI and GI50 values is PubChem BioAssay (NCI).

Values joined by “and” are separate entries in the source; they are usually repeats but may differ in a detail not shown here. Equal values may be shown once.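 Compound exposure: 48 hours, 5 concentrations, 96-well plates. Abbreviation: GI50, concentration required for 50% inhibition of growth. TGI denotes the concentration required for complete inhibition of growth.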 Some results are limits rather than exact numbers.

Take `CC1=NN(c2cccc(Cl)c2)C(=N/c2nc3ccccc3s2)/C1=C\c1ccccc1O`: the TGI in the experiment with HOP-62 NSCLC was above 100 µM; with MOLT-4 leukemia, 87.4 µM; in the experiment on UACC-257 melanoma, 62.2 µM; in the experiment on HOP-92 NSCLC it was 83.5 µM; in the experiment with SR leukemia, 77.3 µM; with SK-MEL-2 melanoma it was 40.3 µM. In addition, the TGI in the experiment with OVCAR-8 ovarian is above 100 µM; in the experiment with SK-OV-3 ovarian, 81.1 µM; in the experiment with NCI/ADR-RES ovarian, 63.7 µM; in the experiment with SK-MEL-5 melanoma, 46.2 µM.

For `N#Cc1c(Cl)cccc1Oc1ccc(S(=O)(=O)/N=C(\NO)Nc2ccc(Cl)cc2)cc1`, the TGI in the experiment on HOP-62 NSCLC came out at 34.1 µM; with MOLT-4 leukemia, 44.1 µM; in the experiment with SN12C renal, 29.4 µM; in the experiment with UACC-62 melanoma it was 29.3 µM; in the experiment on UACC-257 melanoma it was 32.1 µM; in the experiment on HOP-92 NSCLC, 24.6 µM. Further, the TGI amounted to 78.2 µM with SR leukemia; 38.5 µM in the experiment with SK-MEL-2 melanoma; 43.5 µM in the experiment on OVCAR-8 ovarian; 48 µM with NCI/ADR-RES ovarian; 31 µM in the experiment with SK-MEL-5 melanoma.

For `O=C1c2scc(-c3ccc(F)cc3)c2-n2cccc21`, the TGI in the experiment with HOP-62 NSCLC was 64.4 µM; in the experiment with MOLT-4 leukemia, above 100 µM; in the experiment with SN12C renal, 87.9 µM; in the experiment on UACC-62 melanoma it was above 100 µM; with UACC-257 melanoma, above 100 µM; with SR leukemia, 44 µM. For the same molecule, the TGI in the experiment with SK-MEL-2 melanoma, in the experiment on OVCAR-8 ovarian, in the experiment with SK-OV-3 ovarian, with NCI/ADR-RES ovarian and in the experiment on SK-MEL-5 melanoma was above 100 µM throughout.

As to `COc1ccccc1/[N+]([O-])=C/c1ccccc1OC(=S)S`, the TGI is above 100 µM in the experiment with MOLT-4 leukemia; above 100 µM in the experiment with SN12C renal; above 100 µM in the experiment with UACC-62 melanoma; above 100 µM in the experiment with UACC-257 melanoma; 61.8 µM in the experiment with HOP-92 NSCLC; above 100 µM in the experiment on SR leukemia. The TGI in the experiment with SK-MEL-2 melanoma was 80.2 µM; in the experiment on OVCAR-8 ovarian, 66.2 µM; in the experiment on SK-OV-3 ovarian, above 100 µM; with NCI/ADR-RES ovarian, above 100 µM; in the experiment on SK-MEL-5 melanoma it was above 100 µM.

On to `COC(=O)CC[N+]1([O-])CC1`, for which the TGI with HOP-62 NSCLC, with MOLT-4 leukemia, with SN12C renal, in the experiment with UACC-62 melanoma, in the experiment with UACC-257 melanoma and in the experiment with HOP-92 NSCLC was above 100 µM throughout. Moreover, the TGI in the experiment on SR leukemia, in the experiment on OVCAR-8 ovarian, in the experiment on SK-OV-3 ovarian, in the experiment on NCI/ADR-RES ovarian and in the experiment with SK-MEL-5 melanoma was above 100 µM throughout.

For `C=C[C@@]1(C)CC(=O)[C@]2(O)[C@@]3(C)[C@@H](OC(C)=O)CCC(C)(C)[C@@H]3[C@H](O)[C@H](OC(C)=O)[C@@]2(C)O1`, the TGI with HOP-62 NSCLC, with MOLT-4 leukemia, in the experiment with SN12C renal, with UACC-62 melanoma, in the experiment on UACC-257 melanoma and with HOP-92 NSCLC was above 100 µM each time. Moreover, the TGI with SR leukemia, in the experiment on SK-MEL-2 melanoma, in the experiment on OVCAR-8 ovarian, in the experiment with SK-OV-3 ovarian and with NCI/ADR-RES ovarian was above 100 µM in each case.

Take `CN(C(=O)C12C3C4C1C1C2C3C41C(=O)O)C(C)(C)C` (configuration not stated): the TGI with HOP-62 NSCLC, with MOLT-4 leukemia, in the experiment with SN12C renal, in the experiment with UACC-62 melanoma, with UACC-257 melanoma and in the experiment with HOP-92 NSCLC was above 100 µM in each case. Besides, the TGI in the experiment on SR leukemia, with SK-MEL-2 melanoma, with OVCAR-8 ovarian, in the experiment with NCI/ADR-RES ovarian and in the experiment on SK-MEL-5 melanoma was above 100 µM each time.

Regarding `COc1ccc(-c2c(C#N)c(N)n(C3OCC(O)C(O)C3O)c(=S)c2C#N)cc1` (configuration not stated), the TGI with HOP-62 NSCLC, in the experiment on MOLT-4 leukemia, in the experiment with SN12C renal, in the experiment on UACC-62 melanoma, in the experiment with SR leukemia and in the experiment on SK-MEL-2 melanoma was above 100 µM throughout. In addition, the TGI with OVCAR-8 ovarian, in the experiment with SK-OV-3 ovarian, in the experiment on NCI/ADR-RES ovarian and in the experiment on SK-MEL-5 melanoma was above 100 µM each time.

As to `O=C1CCCSCCCC(=O)CCCSCCC1`, the TGI in the experiment on HOP-62 NSCLC, in the experiment on MOLT-4 leukemia, with SN12C renal, in the experiment with UACC-62 melanoma, with UACC-257 melanoma and in the experiment on HOP-92 NSCLC was above 100 µM each time. Besides, the TGI in the experiment with SR leukemia, in the experiment on OVCAR-8 ovarian, in the experiment on SK-OV-3 ovarian, in the experiment on NCI/ADR-RES ovarian and in the experiment on SK-MEL-5 melanoma was above 100 µM each time.

Turning to `CC[C@@]1(O)C(=O)OCc2c1cc1n(c2=O)Cc2c-1nc1ccccc1c2C=Nc1ccc(N[C@@H]2c3cc4c(cc3[C@@H](c3cc(OC)c(O)c(OC)c3)[C@H]3C(=O)OC[C@@H]32)OCO4)cc1`, the TGI is above 100 µM with MOLT-4 leukemia; 28.2 µM in the experiment with SR leukemia; 0.263 µM with OVCAR-8 ovarian; 9.93 µM in the experiment with SK-OV-3 ovarian; 0.309 µM and 0.366 µM in the experiment with SK-MEL-5 melanoma. Moreover, the GI50 with SN12C renal was 0.0291 µM and 0.0101 µM; with UACC-257 melanoma, 0.354 µM; in the experiment on HOP-92 NSCLC it was 0.0258 µM; in the experiment with SK-MEL-2 melanoma it was 2.5 µM and 0.535 µM; with OVCAR-8 ovarian, 0.0264 µM and 0.016 µM; with SK-OV-3 ovarian, 0.668 µM and 0.141 µM. Further, the GI50 is 0.0449 µM and < 0.01 µM in the experiment on NCI/ADR-RES ovarian; 0.0255 µM in the experiment on SK-MEL-5 melanoma.

As for `O=C(/C=C/c1ccsc1)c1cccs1`, the TGI in the experiment on HOP-62 NSCLC was above 100 µM; with MOLT-4 leukemia it was above 10 µM; in the experiment with SN12C renal, 41.9 µM; in the experiment on UACC-62 melanoma, 88.5 µM; in the experiment with UACC-257 melanoma, above 100 µM; in the experiment on HOP-92 NSCLC, 93.5 µM. For the same molecule, the TGI in the experiment with SR leukemia is above 10 µM; in the experiment with OVCAR-8 ovarian, above 10 µM; in the experiment on SK-OV-3 ovarian, above 100 µM; in the experiment on NCI/ADR-RES ovarian, 44.9 µM; in the experiment on SK-MEL-5 melanoma, 36.3 µM.

With `COC(=O)CC(SCCO)SCCO`, the TGI in the experiment with HOP-62 NSCLC, in the experiment on MOLT-4 leukemia, in the experiment with SN12C renal, in the experiment with UACC-62 melanoma, in the experiment with UACC-257 melanoma and with HOP-92 NSCLC was above 100 µM in each case. The TGI in the experiment with SR leukemia, in the experiment on OVCAR-8 ovarian, with SK-OV-3 ovarian, in the experiment on NCI/ADR-RES ovarian and with SK-MEL-5 melanoma was above 100 µM throughout.
